According to US12605464B2, “Cyclohexane lipidoids for nucleic acid transfection and use thereof” (USTAV ORGANICKE CHEMIE A BIOCHEMIE AV CR V.V.I., priority 2021, dated 2026):

Tests used:
HEK293T = assay: Cellular toxicity of LNPs, CellTiterGlo 2.0 cell viability assay; assay type: cell-based, human; settings: 100 μM total lipid components, 24 hours, normalized to non-transfected cells
Method: (§1) A human cell line derived from embryonic kidney cells expressing SV40 large T antigen (HEK293T), and human hepatocyte carcinoma cell line (HepG2) were cultured in 96-well plates (5×10^4 cells in […] of culture medium per well) in Dulbecco's modified medium (DMEM) supplemented with 10% foetal bovine serum (FBS) at 37° C. in 5% CO2. Cells were transfected with 2 μl of LNPs B07-B12 generated in triplicates in Example 20 (the final total concentration of all lipid components in the well was 20 μM) or 10 μl of LNPs (the final total concentration of all lipid components in the well was 100 μM) and subsequently incubated for 24 hours. The cytotoxicity of LNPs was analyzed in a CellTiterGlo 2.0 cell viability assay (Promega, USA). Cell viability was normalized to non-transfected cells (control).

HepG2 = assay: as above; assay type: cell-based, human; settings: HepG2, 100 μM total lipid components, 24 hours, normalized to non-transfected cells
Method: as §1

CCCCCCCCCCCCN(CCCCCCCCCCCC)CCCNC(=O)c1cc(C(=O)NCCCN(CCCCCCCCCCCC)CCCCCCCCCCCC)cc(C(=O)NCCCN(CCCCCCCCCCCC)CCCCCCCCCCCC)c1 [TT3]
Cytotoxicity expressed as cell viability (%) (HEK293T): 27%
Cytotoxicity expressed as cell viability (%) (HepG2): 15%
